In data set [1] the test system is chronic cough. The conditions noted are these: literature, cited from earlier work.
Data set [2] deals with taste of SD rats. In words: Rat taste test (quinine water / tap water drinking). The class given is in vivo. As to the method:
Experimental purpose: to observe an effect of title compounds on taste of SD rats.
• 1.1) Animals and grouping: 40 male SD rats, with about 300 grams per rat. […] A bottle of normal drinking water and a bottle of drinking water containing 0.3 mM quinine hydrochloride were placed in each cage at the same time, and left and right positions where the two bottles of water were placed in all animal feeding cages were the same. After the animals were allowed to freely drink water for 15 minutes, drinking amounts of the two bottles of water were measured respectively to the nearest 0.1 mL. • 1.5) Data statistics: drinking amounts of quinine bitter water and tap water and a total water drinking amount thereof as well as a percentage of quinine water in the total water drinking amount were counted respectively. Water drinking amounts of the bitter water of animals in each group were compared. Whether differences between groups were significant was compared by analysis of variance. 2) Experimental Results

In data set [3] the target is T1, human PAR-1 (Homo sapiens, UniProt P25116).
T1 construct: host or cells: HEK293/Ga15 recombinant cell line
T1 sequence (P25116 22-425): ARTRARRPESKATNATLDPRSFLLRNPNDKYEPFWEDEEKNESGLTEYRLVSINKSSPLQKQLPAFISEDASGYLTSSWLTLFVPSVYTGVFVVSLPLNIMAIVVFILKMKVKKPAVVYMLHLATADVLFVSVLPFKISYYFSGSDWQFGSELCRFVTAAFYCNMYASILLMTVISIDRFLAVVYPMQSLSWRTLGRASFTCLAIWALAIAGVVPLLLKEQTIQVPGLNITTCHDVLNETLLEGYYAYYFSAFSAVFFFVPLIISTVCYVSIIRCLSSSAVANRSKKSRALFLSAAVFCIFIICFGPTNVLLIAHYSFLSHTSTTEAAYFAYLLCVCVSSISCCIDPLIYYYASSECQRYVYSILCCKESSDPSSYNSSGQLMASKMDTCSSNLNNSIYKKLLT
Kind of data set: Inhibitory activity against PAR-1, calcium ion flux fluorescence method (FLIPR). The note with it: HEK293/Ga15 cells expressing human PAR-1, TFLLR-NH2 10 μM, starting concentration 30 μM. The class given is cell-based. The procedure:
The inhibitory activity of the title compounds against human PAR-1 was determined by a calcium ion flux fluorescence method (an FLIPR method). The method thereof was reported in the literature of Zhong et al. [Zhong et al. J Biomol Struct Dyn, 2017, 35(13):2853].
An HEK293/Ga15 recombinant cell line (HD Biosciences, Shanghai, China) stably expressing human PAR-1 was cultured in a DMEM (Thermo Fisher Scientific, Shanghai) culture solution (containing 10% calf serum, 800 μg/mL G418). Incubator conditions were 37° C. and an air humidity with 5% CO2.
On the first day, 20 μL per well of PAR-1 cells at a concentration of 4E+5 cells/mL were seeded in a 384-well analysis plate (Corning 3712). […] On the second day, a culture solution in each well was poured off. Then, 20 μL of 1×loading dye (2 μM Fluo-8 AM in 1×HBSS with 20 mM HEPES, 1 mM Probenecid, 0.025% Pluronic F-127 assay buffer) was added in each well. The cell analysis plate was cultured for 1 hour at a room temperature.
The compounds were dissolved into 100% DMSO to prepare a 10 mM stock solution, which was stored at −20° C. On the day of use, the compound stock solution was thawed at a room temperature. Each compound was subjected to 1:3 serial dilution at 11 concentration points with a DMEM culture solution with a starting concentration of 30 μM. Each compound was subjected to double dilution for testing. A positive control compound was diluted in the same way with SCH79797 with a starting concentration of 30 μM.
The cell analysis plate was placed in a FLIPR instrument (Molecular Device) and 10 μL of compounds (3× of a final concentration) in a compound plate was added to corresponding wells of the cell analysis plate. After 10 minutes, 10 μL of TFLLR-NH2 (TFA) (a final concentration of 10 μM) was added to each well to stimulate generation of intracellular calcium flux signals. Ca^++-dependent fluorescence signals were continuously monitored at excitation wavelengths of 470/495 nm and emission wavelengths of 515/575 nm to analyze the inhibitory activity of the compounds.
Data were collected and analyzed by using an FLIPR program. The inhibitory (or agonistic) activity of the compounds at each concentration was assessed by fluorescence peaks. IC50 values of the compounds were calculated by using EXCEL and PRISM programs.

The target in data set [4] is T2, rP2X3 (Rattus norvegicus, UniProt P49654).
T2 construct: expressed in transfected cells; host or cells: HEK293
T2 sequence (P49654 1-397): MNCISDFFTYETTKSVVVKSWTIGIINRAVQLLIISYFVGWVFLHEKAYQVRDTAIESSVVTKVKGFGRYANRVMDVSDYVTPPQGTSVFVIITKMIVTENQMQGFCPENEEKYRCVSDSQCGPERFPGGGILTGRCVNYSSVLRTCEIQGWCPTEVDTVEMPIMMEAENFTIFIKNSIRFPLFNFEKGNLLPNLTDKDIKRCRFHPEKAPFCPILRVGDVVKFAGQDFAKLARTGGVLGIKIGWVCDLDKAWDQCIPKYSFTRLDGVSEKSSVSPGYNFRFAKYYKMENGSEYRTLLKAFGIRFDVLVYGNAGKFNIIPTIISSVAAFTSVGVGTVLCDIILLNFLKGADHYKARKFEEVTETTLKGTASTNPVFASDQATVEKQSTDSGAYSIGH
Kind of data set: Inhibitory activity against P2X3 in rats (electrophysiological method). The class given is cell-based.

The target in data set [5] is T3, human P2X2/3 (Homo sapiens, UniProt P56373+Q9UBL9).
T3 construct: expressed in transfected cells; host or cells: HEK293
T3 sequence (P56373 1-397): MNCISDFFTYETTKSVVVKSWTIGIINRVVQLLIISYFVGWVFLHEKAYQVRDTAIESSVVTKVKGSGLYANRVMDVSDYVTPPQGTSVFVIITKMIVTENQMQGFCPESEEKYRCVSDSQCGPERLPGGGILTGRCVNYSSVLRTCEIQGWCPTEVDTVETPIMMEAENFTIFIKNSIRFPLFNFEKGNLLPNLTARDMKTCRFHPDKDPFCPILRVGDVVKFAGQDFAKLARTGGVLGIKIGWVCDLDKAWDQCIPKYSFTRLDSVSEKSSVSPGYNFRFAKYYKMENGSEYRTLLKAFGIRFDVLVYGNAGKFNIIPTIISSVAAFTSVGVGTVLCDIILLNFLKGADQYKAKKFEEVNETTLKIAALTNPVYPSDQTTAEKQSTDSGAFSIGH
T3 sequence (Q9UBL9 1-471): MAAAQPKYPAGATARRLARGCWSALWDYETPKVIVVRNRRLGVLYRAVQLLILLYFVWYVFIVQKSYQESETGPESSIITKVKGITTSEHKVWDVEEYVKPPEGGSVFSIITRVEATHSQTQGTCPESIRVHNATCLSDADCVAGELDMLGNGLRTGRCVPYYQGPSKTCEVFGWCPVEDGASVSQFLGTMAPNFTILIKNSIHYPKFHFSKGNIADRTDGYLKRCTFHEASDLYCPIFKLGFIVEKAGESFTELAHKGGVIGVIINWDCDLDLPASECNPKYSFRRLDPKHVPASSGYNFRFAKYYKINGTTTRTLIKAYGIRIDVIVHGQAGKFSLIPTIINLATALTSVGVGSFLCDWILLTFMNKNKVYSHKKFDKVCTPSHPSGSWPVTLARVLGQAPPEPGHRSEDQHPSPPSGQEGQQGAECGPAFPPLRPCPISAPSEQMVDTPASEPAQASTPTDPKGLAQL
Kind of data set: Inhibitory activity against human P2X2/3 (electrophysiological method). The note with it: read-out: hP2X2/3 (IC50). The class given is cell-based.

The target of data set [6] is T4, human P2X3 (Homo sapiens, UniProt P56373).
T4 sequence (P56373 1-397): T3 sequence (P56373 1-397)
Kind of data set: cell-based.
Procedure: (§1) An HEK293 cell line was used as cells. HEK293 cells were placed in a 37° C. incubator with 5% CO2 for culture. Passage was conducted when the cells grew to a density of 80% to 90%. A culture medium in an original 60 mm culture dish was discarded. After the cells were washed 3 times with a sterilized PBS solution, and the solution was blotted up. […] After the trypsin was blotted up, 3 mL of a cell culture medium was added to resuspend the cells. 0.5 mL of a resuspension solution was taken to be added into a new culture dish, and an total culture solution was supplemented to 5 mL. The culture dish was gently shaken to distribute the cells evenly, and then placed in a 37° C. incubator with 5% CO2 for culture.
(§2) First, treated slides were spread in a small 35 mm culture dish. 100 μL of resuspended cells were added, and then a total amount of a culture medium was supplemented to 2 mL. Target genes were transferred into the HEK293 cell line by adopting a calcium transfection method. Small dishes to be transfected were subjected to medium change 1 hour before transfection. 2 mL of a fresh cell culture solution was added. A 1.5 mL EP tube was taken, 200 μL of a 0.25 M CaCl2) solution was added, and 3 μg of plasmids to be transfected were added, and even mixing was conducted to form a DNA-CaCl2 solution. […] A pipette tip was used for mixing while adding. After adding all, gentle blowing and beating were conducted 8 to 10 times. After still standing for 5 minutes, they were added into small dishes. The small dishes were shaken slightly to mix the solution evenly, and the placed in a cell incubator. Culture mediums were replaced after 8 to 10 hours. Electrophysiological experiments were performed 24 to 48 hours after transfection.
(§3) Electrophysiological recording electrodes were obtained by two-step pulling by using an electrode puller (PP-10, Narishige). After an internal solution is injected into the electrodes, a water inlet resistance is 3 to 5 MΩ. During the experiment, a high potassium salt internal solution containing nystatin (K2SO4 of 75 mM, KCl of 120 mM, MgSO4 of 5 mM, HEPES of 10 mM, adjusting pH to 7.2 with Tris-base, and used after filtration) was used as an electrode internal solution. After the cells were sealed by the electrodes, there was no need to further break cell membranes in a sucked manner, but the cell membranes were bored through the perforation of the nystatin to the cell membranes, to form a hole channel. […] A clamping voltage was −60 mV, a sampling frequency was 10 kHz, and filtering was conducted at 2 kHz.
(§4) A working concentration of a P2X3 receptor agonist ATP was 1 μM, and an interval time between two times of ATP administrations was 10 minutes.

Data set [7] concerns the target T5, human P2X4 (Homo sapiens, UniProt Q99571).
T5 construct: expressed in transfected cells; host or cells: HEK293
T5 sequence (Q99571 1-388): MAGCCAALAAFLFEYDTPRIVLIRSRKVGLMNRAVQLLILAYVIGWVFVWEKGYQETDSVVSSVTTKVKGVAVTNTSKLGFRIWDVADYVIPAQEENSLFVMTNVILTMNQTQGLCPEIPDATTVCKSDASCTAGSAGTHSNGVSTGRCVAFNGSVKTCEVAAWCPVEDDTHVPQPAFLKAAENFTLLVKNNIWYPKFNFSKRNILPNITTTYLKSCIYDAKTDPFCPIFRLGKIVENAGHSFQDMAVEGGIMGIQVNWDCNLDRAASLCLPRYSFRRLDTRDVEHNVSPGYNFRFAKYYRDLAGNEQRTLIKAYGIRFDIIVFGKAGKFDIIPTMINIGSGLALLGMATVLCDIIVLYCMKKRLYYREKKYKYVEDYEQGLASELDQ
In words: Inhibitory activity against human P2X4 (electrophysiological method). The note with it: read-out: hP2X4 (IC50). The class given is cell-based.

The target of data set [8] is T6, gpP2X3 (Cavia porcellus, UniProt H0VWY5).
T6 sequence (H0VWY5 1-391): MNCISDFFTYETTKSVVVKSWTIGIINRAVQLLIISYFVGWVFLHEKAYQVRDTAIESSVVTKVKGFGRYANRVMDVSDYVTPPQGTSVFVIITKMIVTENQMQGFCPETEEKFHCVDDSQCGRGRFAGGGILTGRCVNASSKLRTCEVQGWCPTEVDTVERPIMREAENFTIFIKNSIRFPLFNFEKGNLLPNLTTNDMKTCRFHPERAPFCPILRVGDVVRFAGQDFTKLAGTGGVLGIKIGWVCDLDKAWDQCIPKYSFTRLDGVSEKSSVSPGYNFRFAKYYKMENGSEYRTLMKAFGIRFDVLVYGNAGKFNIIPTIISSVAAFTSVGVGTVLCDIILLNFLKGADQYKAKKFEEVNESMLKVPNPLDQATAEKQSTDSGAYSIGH
Kind of data set: Inhibitory activity against P2X3 in guinea pigs (electrophysiological method). The conditions noted are these: guinea pig P2X3, electrophysiological method. The class given is cell-based.

For data set [9], the target named is T4, human P2X3. Kind of data set: Inhibitory activity against human P2X3, perforated patch clamp (electrophysiological method). The conditions noted are these: read-out: hP2X3 (IC50), transfected HEK293 cells, agonist ATP 1 μM, compounds pre-administered for 2 minutes.
Procedure: as §1, §2, §3, §4

On to `COc1cc(C(C)C)c(Oc2cnc(N)nc2N)cc1S(N)(=O)=O` [AF-219, reference compound], for which the “frequency and severity of cough in patients with chronic cough” value in data set [1] (clinical data) was “significantly effective in reducing the frequency and severity of cough”. For the same compound, the “taste disorders in treated subjects” value in data set [1] (clinical trials) is on record as “can lead to taste disorders”. Further, the “Water drinking amount, Tap water” value in data set [2] (10 mg/kg intraperitoneal injection, free drinking 15 minutes, amounts measured to the nearest 0.1 mL) amounted to 8.69. Further, the “Water drinking amount, Sum” value in data set [2] (10 mg/kg intraperitoneal injection, tap plus quinine water, 15 minutes, measured to the nearest 0.1 mL) is 14.02. Besides, the “Water drinking amount, Quinine” value in data set [2] (10 mg/kg intraperitoneal injection, water with 0.3 mM quinine hydrochloride, 15 minutes, measured to the nearest 0.1 mL) is recorded as 5.33. The “drinking amount of bitter water compared with solvent control group” value in data set [2] (10 mg/kg intraperitoneal, result in words) is “increased significantly”.

Regarding `Cc1ccc(C2=NN(C(=O)N[C@H](C)c3ccc(C(F)(F)F)nc3)C[C@@H]2N2CCOC2=O)nc1` [Compound 23, (S)-4-(2-oxooxazolidin-3-yl)-3-(5-methylpyridin-2-yl)-N-((R)-1-(6-(trifluoromethyl)pyridin-3-yl)ethyl)-4,5-dihydro-1H-pyrazol-1-carboxamide], the IC50 was over 30 µM in data set [3]; 0.103 µM in data set [4]; 1.15 µM in data set [5]; 0.038 µM in data set [6]; over 20 µM in data set [7]; 0.359 µM in data set [8].

On to “(S)-4-(3-oxomorpholin-4-yl)-3-(4-methylphenyl])-N- ((R)-1-(3-methyl-1,2,4-oxadiazol-5-yl)ethyl)-4,5-d ihydro-1H-pyrazol-1-carboxamide [Compound 46]”, for which, in [9], the IC50 stood at 0.151 µM.
